The text below walks through data of PubChem BioAssay AID1996.

Converted amounts (≈) assume the structure as drawn.

For this data set the following is noted: buffer; pH 7.4; 200.0 µM.
The kinetic solubility is solubility judged after dilution from a stock solution rather than from solid. As for `N#Cc1c(N2CCCC(O)C2)nc(N)c2c(N)nc3c(c12)CC(=O)N3C12CC3CC(CC(C3)C1)C2` (stereo not drawn), the solubility (kinetic) is 2.4 µg/mL (≈ 5.07 µM). As for `Cn1cc(C(=O)OCC(=O)NC2CCCCC2)c2ccccc21`, the figure is 4.8 µg/mL (≈ 15.3 µM); as for `CCc1noc(C)c1C(=O)NCCc1c[nH]c2ccccc12`, over 44.6 µg/mL. Then `N#Cc1c(F)cccc1NCc1cccs1`, with 1.3 µg/mL (≈ 5.6 µM); and `Cc1nc2ccccc2cc1C(=O)N(C)Cc1ccccc1`, with 43 µg/mL (≈ 148 µM). In turn, `Nc1ccc[n+](CC(=O)c2ccccc2)c1.[Br-]` returned a solubility (kinetic) of over 44 µg/mL. Then `C=CCn1c(Oc2ccccc2F)nc2c1c(=O)n(C)c(=O)n2C`, with over 49.5 µg/mL; and `CC1CCCC(C)N1CC(O)COC1CCC(C(C)(C)C)CC1.Cl` (stereo not drawn), with 46.9 µg/mL; and `COc1ccc(C(=O)Nc2ccc(C(=O)Nc3cccnc3)cc2)cc1`, with 0.6 µg/mL (≈ 1.73 µM). On to `CCOc1ccc(NC(=O)NCCCCc2ccccc2)cc1`, for which the kinetic solubility stood at 0.4 µg/mL (≈ 1.28 µM). `CC1(C)CC(NC(=O)c2ccccc2)CC(C)(C)N1` yielded a kinetic solubility of over 39.1 µg/mL. Compound `Cc1ccc(N2C(=O)C3C4C=CC(CC4)C3C2=O)c([N+](=O)[O-])c1` (stereo not drawn) registered a solubility (kinetic) of 17.7 µg/mL (≈ 56.7 µM). The compound `CS(=O)(=O)N1CCN(C(=O)c2ccc3c(c2)OCCO3)CC1` yielded a solubility (kinetic) of over 49 µg/mL.

With `CCOC(=O)CN1C(=N)N(c2nc(NC(C)C)nc(OC)n2)CC1=O`, the solubility (kinetic) was over 52.7 µg/mL. Turning to `COc1cccc(C=NCCCN=Cc2cccc(OC)c2O)c1O`, the solubility (kinetic) is over 51.4 µg/mL.

In turn, `COC(=O)CSc1nc(C)c2c(n1)CCCC2` had a solubility (kinetic) of 37.6 µg/mL (≈ 149 µM). Then `CCOC(=O)CNC(=S)NN(C)C`, with over 30.8 µg/mL; and `CNC(=O)c1c(NC(=O)c2ccco2)sc2c1CCCC2`, with 2.7 µg/mL (≈ 8.87 µM). With `COc1cnc(-c2ccccn2)nc1N(C)c1ccccc1`, the solubility (kinetic) worked out at 39.7 µg/mL (≈ 136 µM). Then `O=C(O)CCc1ccc(-c2ccccc2)n1-c1cccc(C(=O)O)c1`, with over 50.3 µg/mL; and `CCCc1cc(C(=O)Nc2ccc(CC)cc2)no1`, with 1.4 µg/mL (≈ 5.42 µM). As for `COc1cc2c(cc1OC)CN(C(=O)c1ccc(Cl)c(S(=O)(=O)N3CCCC3)c1)CC2`, the figure is over 69.7 µg/mL. Compound `CCc1ccc(NC(=O)C2CCCN2C(=O)NC2CCCCC2)cc1` (stereo not drawn) returned a solubility (kinetic) of 1.1 µg/mL (≈ 3.2 µM).

Compound `CCC(=NCCc1ccc(OC)c(OC)c1)c1ccccc1O` displayed a solubility (kinetic) of over 47 µg/mL. Take `Cc1ccc2c(C(=O)CN3CCCC(C)C3)c(C)[nH]c2c1` (stereo not drawn): the solubility (kinetic) is 39.3 µg/mL (≈ 138 µM).

Compound `O=C(OCC(=O)N1CCCC1)c1cc([N+](=O)[O-])ccc1Cl` came in with a solubility (kinetic) of over 46.9 µg/mL. Compound `COc1ccc(CC(=O)N2CCN(c3ccc(F)cc3)CC2)cc1` gave a solubility (kinetic) of 38.3 µg/mL (≈ 117 µM). As for `Nc1nc(F)nc2c1ncn2[C@@H]1O[C@H](CO)[C@@H](O)[C@H]1O`, the kinetic solubility was over 42.8 µg/mL. Regarding `COc1ccc([N+](=O)[O-])c(OC)c1C(=O)NC(=O)Nc1nc(C)cc(C)n1`, the solubility (kinetic) turned out to be 43.6 µg/mL (≈ 116 µM). Consider `O=C1c2ccc(Oc3ccc([N+](=O)[O-])cc3)cc2C(=O)N1CCCO`, for which the solubility (kinetic) is 49 µg/mL (≈ 143 µM). Consider `Cc1ccccc1OP(N)(=O)Oc1ccccc1C`, for which the kinetic solubility is over 41.6 µg/mL. For `O=C(Cn1cc([N+](=O)[O-])ccc1=O)Nc1ccc2c(c1)OCO2`, the solubility (kinetic) was found to be 15.8 µg/mL (≈ 49.8 µM). As for `O=C(CN1C(=O)NC2NC(=O)NC21)NC1CCCCC1` (stereo not drawn), the figure is over 42.2 µg/mL. Then `O=C1CC(c2ccsc2)Sc2ccccc2N1` (stereo not drawn), with 33.9 µg/mL (≈ 130 µM). As for `CSc1nc(=S)n(-c2ccccc2)c(C)c1C(C)=O`, the figure is 41.7 µg/mL (≈ 144 µM); as for `Cc1nc2ccccc2c2ncccc12`, 22.4 µg/mL (≈ 115 µM). With `CCCS(=O)(=O)N1CCCC(C(=O)Oc2ccccc2Cl)C1` (stereo not drawn), the kinetic solubility amounted to 45.6 µg/mL (≈ 132 µM).

On to `Cn1c(=O)c2c(nc(Sc3ccccc3N)n2C)n(C)c1=O`, for which the solubility (kinetic) amounted to 39.1 µg/mL (≈ 123 µM).

Regarding `CC(=O)c1cnc(-c2ccccn2)s1`, the solubility (kinetic) came to 28.3 µg/mL (≈ 139 µM).

For the compound `CC(=O)Nc1ccc(NC(=S)NC(=O)C2CC2)cc1`, the kinetic solubility stood at 32.2 µg/mL (≈ 116 µM).

As for `O=C1CCC(C(=O)Nc2ccccc2N2CCCC2)=NN1`, the kinetic solubility was over 42.9 µg/mL. Consider `Cc1ccc(S(=O)(=O)c2nc(-c3ccccc3Cl)oc2N2CCN(C)CC2)cc1`, for which the kinetic solubility is 25.2 µg/mL (≈ 58.3 µM). With `NC(=O)c1ccc(NC(=S)NCc2ccco2)cc1`, the kinetic solubility is over 41.3 µg/mL. Then `Cc1ccc(C(=O)Nc2sc3c(c2C(=O)O)CCCC3)o1`, with over 45.8 µg/mL; and `CC(=O)NCCc1nc2cc(NC(=O)c3cccs3)ccc2n1C`, with over 51.4 µg/mL.

Compound `COc1ccc(C)cc1Nc1nc(-c2ccccc2O)nc2ccccc12` gave a kinetic solubility of under 0.3 µg/mL.

Consider `C/C(CC(=O)Nc1cccc(F)c1)=N\NC(=O)c1ccncc1`, for which the solubility (kinetic) is over 47.1 µg/mL. As for `Cc1ccc(N2CC(=O)N(c3ccc(C)cc3)CC2=O)cc1`, the figure is 8.6 µg/mL (≈ 29.2 µM). On to `COc1cccc(OCCCn2ccnc2)c1.Cl`, for which the kinetic solubility is 33.1 µg/mL. In turn, `Cc1cccc(OCC(=O)NCC(=O)N/N=C/c2cccnc2)c1` came in with a solubility (kinetic) of over 49 µg/mL. The compound `O=c1c2ccccc2nc2n1CCS2(=O)=O` displayed a kinetic solubility of 34.6 µg/mL (≈ 146 µM). The compound `COc1ccc(N2C(=O)CSC2c2ccccc2F)c(OC)c1` (stereo not drawn) yielded a solubility (kinetic) of 45.9 µg/mL (≈ 138 µM).

As for `Cc1cc(C)cc(N(CC(=O)N2CCCC2)S(C)(=O)=O)c1`, the kinetic solubility was over 46.6 µg/mL. As for `COc1ccc(CNC(=O)c2cccnc2)cc1`, the figure is over 36.3 µg/mL; as for `Cn1c(N)c(C(=O)COC(=O)/C=C/c2ccc(Cl)c(Cl)c2)c(=O)n(C)c1=O`, 2.9 µg/mL (≈ 7.03 µM); as for `OC1(c2ccccc2)Cc2cccc[n+]2C1c1ccccc1.[Br-]` (stereo not drawn), over 55.2 µg/mL.

Turning to `CCn1c(CCl)nc2cc(S(=O)(=O)N3CCOCC3)ccc21`, the solubility (kinetic) is 12.9 µg/mL (≈ 37.5 µM). As to `CC(CNC(=O)COC(=O)c1cccs1)c1ccccc1` (stereo not drawn), the solubility (kinetic) was over 45.5 µg/mL.

As to `O=C(NCCc1ccccc1)c1cccc(N2CCCC2=O)c1`, the solubility (kinetic) was over 46.3 µg/mL. In turn, `COc1ccc(CNC(=O)COC(=O)c2cc3ccccc3o2)cc1` displayed a kinetic solubility of 5.4 µg/mL (≈ 15.9 µM). Then `CCN(c1cccc(C)c1)S(=O)(=O)c1ccc2c(c1)oc(=O)n2C`, with 2.7 µg/mL (≈ 7.79 µM). In turn, `CCn1c(NC(=O)C(C)C)c(-c2cccs2)c(=O)c2ccccc21` showed a solubility (kinetic) of over 51.1 µg/mL. In turn, `CCn1cc(S(=O)(=O)Nc2ncccn2)cn1` registered a solubility (kinetic) of over 38 µg/mL. As to `CC(C)(Cc1ccc(O)cc1)NC(=O)SCc1ccccc1`, the solubility (kinetic) was over 47.3 µg/mL. On to `COc1ccc(-c2noc(-c3ccc(Br)o3)n2)cc1`, for which the kinetic solubility is under 0.3 µg/mL. For `COc1ccccc1N(CCC#N)C(=S)Nc1ccc(S(=O)(=O)N2CCOCC2)cc1`, the kinetic solubility is over 69.1 µg/mL. As for `COc1cccc(-c2nc(CCl)cs2)c1.Cl`, the solubility (kinetic) was determined as 22.4 µg/mL. The compound `CC(C)Oc1ccc(S(=O)(=O)N2CCOCC2)cc1NC(=O)Cc1ccsc1` registered a solubility (kinetic) of 31.8 µg/mL (≈ 74.9 µM).

`O=C(CN1C(=O)C(=O)N(Cc2ccco2)C1=O)NC1CCCCC1` came in with a solubility (kinetic) of 45.8 µg/mL (≈ 137 µM).

On to `CSCCC(NC(=O)c1ccco1)C(=O)NNC(=O)c1n[nH]c(=O)c2ccccc12` (stereo not drawn), for which the solubility (kinetic) was over 64.4 µg/mL. For `CCCCNc1ncnc2sc3c(c12)CCN(CCC)C3`, the solubility (kinetic) turned out to be 44.9 µg/mL (≈ 147 µM).

In the case of `COc1ccc(CCC(=O)OCc2csc(CC(=O)Nc3ccc(C)cc3)n2)cc1OC`, the kinetic solubility is 9.9 µg/mL (≈ 21.8 µM). For the compound `NC(=O)CCn1cnc2ccccc21`, the solubility (kinetic) turned out to be 25.5 µg/mL (≈ 135 µM).
